# Experimental data published in ChEMBL document CHEMBL1933022, “Synthetic studies of bi-fluorescence-labeled maltooligosaccharides as substrates for α-amylase on the basis of fluorescence resonance energy transfer (FRET)” (Bioorg Med Chem, 2012).
# The source made the active and inactive calls. No cut-off for these calls is given here.
# Target: T1, Alpha-amylase 1A (Homo sapiens) (UniProt P0DUB6)
# T1 sequence (whole entry): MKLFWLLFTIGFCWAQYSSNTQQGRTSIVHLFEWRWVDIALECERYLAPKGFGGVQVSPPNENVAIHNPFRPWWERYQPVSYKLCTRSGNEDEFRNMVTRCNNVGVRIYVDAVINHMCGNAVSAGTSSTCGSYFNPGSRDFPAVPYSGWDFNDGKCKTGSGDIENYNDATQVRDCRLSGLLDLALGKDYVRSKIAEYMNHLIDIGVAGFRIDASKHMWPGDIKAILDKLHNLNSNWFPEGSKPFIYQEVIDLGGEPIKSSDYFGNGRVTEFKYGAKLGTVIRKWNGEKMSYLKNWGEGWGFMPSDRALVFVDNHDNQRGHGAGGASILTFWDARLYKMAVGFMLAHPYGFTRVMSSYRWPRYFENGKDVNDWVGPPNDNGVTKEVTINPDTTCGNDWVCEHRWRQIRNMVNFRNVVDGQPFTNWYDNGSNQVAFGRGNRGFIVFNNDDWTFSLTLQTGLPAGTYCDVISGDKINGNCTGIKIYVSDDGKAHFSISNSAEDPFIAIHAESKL
# Assay: Activity of human saliva alpha-amylase assessed as decrease in fluorescence intensity measured for every 3 mins for 30 mins by FRET analysis
row,SMILES,Activity
1,CN(C)c1cccc2c(S(=O)(=O)NCCSCCCCCS[C@@H]3O[C@H](CO)[C@@H](O[C@H]4O[C@H](COCc5ccc6ccccc6c5)[C@@H](O)[C@H](O)[C@H]4O)[C@H](O)[C@H]3O)cccc12,inactive
2,CN(C)c1cccc2c(S(=O)(=O)NCCSCCCCCS[C@@H]3O[C@H](CO)[C@@H](O[C@H]4O[C@H](CO)[C@@H](O[C@H]5O[C@H](CO)[C@@H](O[C@H]6O[C@H](COCc7ccc8ccccc8c7)[C@@H](O)[C@H](O)[C@H]6O)[C@H](O)[C@H]5O)[C@H](O)[C@H]4O)[C@H](O)[C@H]3O)cccc12,Active
3,CN(C)c1cccc2c(S(=O)(=O)NCCSCCCCCS[C@@H]3O[C@H](CO)[C@@H](O[C@H]4O[C@H](CO)[C@@H](O[C@H]5O[C@H](CO)[C@@H](O[C@H]6O[C@H](CO)[C@@H](O[C@H]7O[C@H](CO)[C@@H](O[C@H]8O[C@H](COCc9ccc%10ccccc%10c9)[C@@H](O)[C@H](O)[C@H]8O)[C@H](O)[C@H]7O)[C@H](O)[C@H]6O)[C@H](O)[C@H]5O)[C@H](O)[C@H]4O)[C@H](O)[C@H]3O)cccc12,Active

# More lines, now with the values ahead:
row,Activity,SMILES
1,inactive,CN(C)c1cccc2c(S(=O)(=O)NCCSCCCCCS[C@@H]3O[C@H](CO)[C@@H](O[C@H]4O[C@H](CO)[C@@H](O[C@H]5O[C@H](COCc6ccc7ccccc7c6)[C@@H](O)[C@H](O)[C@H]5O)[C@H](O)[C@H]4O)[C@H](O)[C@H]3O)cccc12
2,Active,CN(C)c1cccc2c(S(=O)(=O)NCCSCCCCCS[C@@H]3O[C@H](CO)[C@@H](O[C@H]4O[C@H](CO)[C@@H](O[C@H]5O[C@H](CO)[C@@H](O[C@H]6O[C@H](CO)[C@@H](O[C@H]7O[C@H](CO)[C@@H](O[C@H]8O[C@H](CO)[C@@H](O[C@H]9O[C@H](COCc%10ccc%11ccccc%11c%10)[C@@H](O)[C@H](O)[C@H]9O)[C@H](O)[C@H]8O)[C@H](O)[C@H]7O)[C@H](O)[C@H]6O)[C@H](O)[C@H]5O)[C@H](O)[C@H]4O)[C@H](O)[C@H]3O)cccc12
3,Active,CN(C)c1cccc2c(S(=O)(=O)NCCSCCCCCS[C@@H]3O[C@H](CO)[C@@H](O[C@H]4O[C@H](CO)[C@@H](O[C@H]5O[C@H](CO)[C@@H](O[C@H]6O[C@H](CO)[C@@H](O[C@H]7O[C@H](COCc8ccc9ccccc9c8)[C@@H](O)[C@H](O)[C@H]7O)[C@H](O)[C@H]6O)[C@H](O)[C@H]5O)[C@H](O)[C@H]4O)[C@H](O)[C@H]3O)cccc12
